US20230150986A1, “ANTAGONISTS OF THE MUSCARINIC ACETYLCHOLINE RECEPTOR M4” (Vanderbilt University, priority 2019, published 2023)

Molecular target: T1, Human M4 (Homo sapiens, UniProt P08173)
T1 construct: Human or rat M4 cDNA, along with the chimeric G protein Gq,5, were transfected into Chinese hamster ovary (CHO-K1) cells; expressed in transfected cells; host or cells: CHO-K1 (M4/Gqi5/CHO)
T1 sequence (P08173 1-479): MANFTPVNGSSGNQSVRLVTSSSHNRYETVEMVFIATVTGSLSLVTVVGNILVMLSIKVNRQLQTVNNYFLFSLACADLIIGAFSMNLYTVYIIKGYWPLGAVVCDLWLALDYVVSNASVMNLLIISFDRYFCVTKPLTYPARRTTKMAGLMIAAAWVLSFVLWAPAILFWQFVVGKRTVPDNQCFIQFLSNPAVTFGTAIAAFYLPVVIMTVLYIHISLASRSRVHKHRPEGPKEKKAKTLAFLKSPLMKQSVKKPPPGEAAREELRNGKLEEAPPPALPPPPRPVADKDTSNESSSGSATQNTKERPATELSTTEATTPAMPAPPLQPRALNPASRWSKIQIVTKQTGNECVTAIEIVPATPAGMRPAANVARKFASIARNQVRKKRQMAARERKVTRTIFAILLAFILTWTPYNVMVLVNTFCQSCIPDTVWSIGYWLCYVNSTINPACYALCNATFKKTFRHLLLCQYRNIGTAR
Experiment: mAChR M4 cell-based functional assay (calcium flux, decrease of EC80 acetylcholine response)
Details: for Human M4 Emin: % ACh maximum at 30 μM; for IC50: CHO-K1 cells with human M4 and Gqi5, EC80 acetylcholine
Description: Human or rat M4 cDNA, along with the chimeric G protein Gq,5, were transfected into Chinese hamster ovary (CHO-K1) cells purchased from the American Type Culture Collection using Lipofectamine2000. M4/Gqi5/CHO cells were grown in Ham's F-12 medium containing 10% heat-inactivated fetal bovine serum (FBS), 20 mM HEPES, 500 μg/mL G^418 sulfate, and 200 μg/mL Hygromycin B.
For high throughput measurement of agonist-evoked increases in intracellular calcium, CHO-K1 cells stably expressing muscarinic receptors were plated in growth medium lacking G418 and hygromycin at 15,000 cells/20 μL/well in Greiner 384-well black-walled, tissue culture (TC)-treated, clear-bottom plates (VWR). Cells were incubated overnight at 37° C. and 5% CO2. The next day, cells were washed using an ELX 405 (BioTek) with assay buffer; the final volume was then aspirated to 20 μL. Next, 20 μL of a 2.3 μM stock of Fluo-4/acetoxymethyl ester (Invitrogen, Carlsbad, Calif.), prepared as a 2.3 mM stock in DMSO and mixed in a 1:1 ratio with 10% (w/v) Pluronic F-127 and diluted in assay buffer, was added to the wells and the cell plates were incubated for 50 min at 37° C. and 5% CO2. Dye was removed by washing with the ELX 405 and the final volume was aspirated to 20 μL. Compound master plates were formatted in a 10 point concentration-response curve (CRC) format (1:3 dilutions) in 100% DMSO with a starting concentration of 10 or 1 mM using a BRAVO liquid handler (Agilent). Test compound CRCs were then transferred to daughter plates (240 nL) using the Echo acoustic plate reformatter (Labcyte, Sunnyvale, Calif.) and then diluted into assay buffer (40 μL) to a 2× stock using a Thermo Fisher Combi (Thermo Fisher Scientific, Waltham, Mass.).
Calcium flux was measured using the Functional Drug Screening System (FDSS) 6000 or 7000 (Hamamatsu Corporation, Tokyo, Japan) as an increase in the fluorescent static ratio. Compounds were applied to cells (20 μL, 2×) using the automated system of the FDSS at 2 seconds into the protocol and the data were collected at 1 Hz. At 143 s, 10 μL of an EC20 concentration of the muscarinic receptor agonist acetylcholine was added (5×), followed by the addition of […] of an EC80 concentration of acetylcholine at the 268 s time point (5×). Agonist activity was analyzed as a concentration-dependent increase in calcium mobilization upon compound addition. Positive allosteric modulator activity was analyzed as a concentration-dependent increase in the EC2o acetylcholine response. Antagonist activity was analyzed as a concentration-dependent decrease in the EC80 acetylcholine response; for the purposes of the tables herein, an IC50 (inhibitory concentration 50) was calculated as a concentration-dependent decrease of the response elicited by an EC80 concentration of acetylcholine. Concentration-response curves were generated using a four-parameter logistical equation in XLFit curve fitting software (IDBS, Bridgewater, N.J.) for Excel (Microsoft, Redmond, Wash.) or Prism (GraphPad Software, Inc., San Diego, Calif.) or the Dotmatics software platform (Dotmatics, Bishop's Stortford, UK).
Compounds were synthesized as described above. Activity (IC50 and Emin) was determined in the mAChR M4 cell-based functional assay as described above and the data are shown in Table 2.

SMILES: Fc1cc(F)c(F)c(-c2ccc(N[C@H]3C[C@@H]4CN(Cc5cccc(F)n5)C[C@@H]4C3)nn2)c1 [Compound 22, (3aR,5s,6aS)-2-((6-fluoropyridin-2-yl)methyl)-N-(6-(2,3,5-trifluorophenyl)pyridazin-3-yl)octahydrocyclopenta[c]pyrrol-5-amine]
- Human M4 Emin: 4%
- IC50: 79.2 nM

SMILES: Fc1cc(F)c(F)c(-c2ccc(N[C@H]3C[C@@H]4CN(CCC(F)(F)F)C[C@@H]4C3)nn2)c1 [Compound 60, (3aR,5s,6aS)-N-(6-(2,3,5-trifluorophenyl)pyridazin-3-yl)-2-(3,3,3-trifluoropropyl)octahydrocyclopenta[c]pyrrol-5-amine]
- Human M4 Emin: 13%
- IC50: 810 nM

SMILES: OC1(CN2C[C@H]3C[C@H](Nc4ccc(-c5cc(F)cc(F)c5F)nn4)C[C@H]3C2)CCCC1 [Compound 61, 1-(((3aR,5s,6aS)-5-((6-(2,3,5-trifluorophenyl)pyridazin-3-yl)amino)hexahydrocyclopenta[c]pyrrol-2(1H)-yl)methyl)cyclopentan-1-ol]
- Human M4 Emin: 2%
- IC50: 2.3 nM

SMILES: [2H]C(C)(N1C[C@H]2C[C@H](Nc3ccc(-c4cc(F)cc(F)c4F)nn3)C[C@H]2C1)C1(C)CCOCC1 (stereo partly drawn) [Compound 45, (3aR,5s,6aS)-2-(1-(4-methyltetrahydro-2H-pyran-4-yl)ethyl-1-d)-N-(6-(2,3,5-trifluorophenyl)pyridazin-3-yl)octahydrocyclopenta[c]pyrrol-5-amine]
- Human M4 Emin: 1%
- IC50: 141 nM

SMILES: OC1(CN2C[C@H]3C[C@H](Nc4ccc(-c5cc(F)cc(F)c5F)nn4)C[C@H]3C2)C2CC3CC(C2)CC1C3 (stereo partly drawn) [Compound 63, 2-(((3aR,5s,6aS)-5-((6-(2,3,5-trifluorophenyl)pyridazin-3-yl)amino)hexahydrocyclopenta[c]pyrrol-2(1H)-yl)methyl)adamantan-2-ol]
- Human M4 Emin: 3%
- IC50: 78 nM

SMILES: [2H]C1([2H])[C@H](Nc2ccc(-c3cc(F)cc(F)c3F)nn2)C([2H])([2H])[C@H]2CN(CC3CCOCC3)C[C@H]21 [Compound 70]
- Human M4 Emin: 3%
- IC50: 4.4 nM

SMILES: CCOCCN1C[C@H]2C[C@H](Nc3ccc(-c4cc(F)cc(F)c4F)nn3)C[C@H]2C1 [Compound 74, (3aR,5s,6aS)-2-(2-ethoxyethyl)-N-(6-(2,3,5-trifluorophenyl)pyridazin-3-yl)octahydrocyclopenta[c]pyrrol-5-amine]
- Human M4 Emin: 4%
- IC50: 210 nM

SMILES: Fc1cc(F)c(F)c(-c2ccc(N[C@H]3C[C@@H]4CN(CC5CC56CCOCC6)C[C@@H]4C3)nn2)c1 (stereo partly drawn) [Compound 72, (3aR,5s,6aS)-2-((6-oxaspiro[2.5]octan-1-yl)methyl)-N-(6-(2,3,5-trifluorophenyl)pyridazin-3-yl)octahydrocyclopenta[c]pyrrol-5-amine]
- Human M4 Emin: 3%
- IC50: 2.1 nM

SMILES: Fc1ccc(CN2C[C@H]3C[C@H](Nc4ccc(-c5cc(F)cc(F)c5F)nn4)C[C@H]3C2)nc1 [Compound 21, (3aR,5s,6aS)-2-((5-fluoropyridin-2-yl)methyl)-N-(6-(2,3,5-trifluorophenyl)pyridazin-3-yl)octahydrocyclopenta[c]pyrrol-5-amine]
- Human M4 Emin: 4%
- IC50: 36.1 nM

SMILES: [2H]C([2H])(N1C[C@H]2C[C@H](Nc3ccc(-c4cc(F)cc(F)c4F)nn3)C[C@H]2C1)C1(C)CCCOC1 (stereo partly drawn) [Compound 49, (3aR,5s,6aS)-2-((3-methyltetrahydro-2H-pyran-3-yl)methyl-d2)-N-(6-(2,3,5-trifluorophenyl)pyridazin-3-yl)octahydrocyclopenta[c]pyrrol-5-amine]
- Human M4 Emin: 2%
- IC50: 25.8 nM

SMILES: Fc1cc(F)c(F)c(-c2ccc(N[C@H]3C[C@@H]4CN(C[C@@H]5CC6CCC5O6)C[C@@H]4C3)nn2)c1 (stereo partly drawn) [Compound 32, (3aR,5s,6aS)-2-(((2S)-7-oxabicyclo[2.2.1]heptan-2-yl)methyl)-N-(6-(2,3,5-trifluorophenyl)pyridazin-3-yl)octahydrocyclopenta[c]pyrrol-5-amine]
- Human M4 Emin: 3%
- IC50: 0.48 nM

SMILES: CC(C)C(O)CN1C[C@H]2C[C@H](Nc3ccc(-c4cc(F)cc(F)c4F)nn3)C[C@H]2C1 (stereo partly drawn) [Compound 64, 3-methyl-1-((3aR,5s,6aS)-5-((6-(2,3,5-trifluorophenyl)pyridazin-3-yl)amino)hexahydrocyclopenta[c]pyrrol-2(1H)-yl)butan-2-ol]
- Human M4 Emin: 5%
- IC50: 7.3 nM

SMILES: Fc1cc(F)c(F)c(-c2ccc(N[C@H]3C[C@@H]4CN(C[C@@H]5COCCO5)C[C@@H]4C3)nn2)c1 [Compound 28, (3aR,5s,6aS)-2-(((R)-1,4-dioxan-2-yl)methyl)-N-(6-(2,3,5-trifluorophenyl)pyridazin-3-yl)octahydrocyclopenta[c]pyrrol-5-amine]
- Human M4 Emin: 4%
- IC50: 0.69 nM

SMILES: Fc1cc(F)c(F)c(-c2ccc(N[C@H]3C[C@@H]4CN(C[C@H]5CCOC5)C[C@@H]4C3)nn2)c1 [Compound 30, (3aR,5s,6aS)-2-(((R)-tetrahydrofuran-3-yl)methyl)-N-(6-(2,3,5-trifluorophenyl)pyridazin-3-yl)octahydrocyclopenta[c]pyrrol-5-amine]
- Human M4 Emin: 2%
- IC50: 63.2 nM

SMILES: Fc1cc(F)c(F)c(-c2ccc(N[C@H]3C[C@@H]4CN(C5CCCCC5)C[C@@H]4C3)nn2)c1 [Compound 34, (3aR,5s,6aS)-2-cyclohexyl-N-(6-(2,3,5-trifluorophenyl)pyridazin-3-yl)octahydrocyclopenta[c]pyrrol-5-amine]
- Human M4 Emin: 2%
- IC50: 38.7 nM

SMILES: [2H]C([2H])(N1C[C@H]2C[C@H](Nc3ccc(-c4cc(F)cc(F)c4F)nn3)C[C@H]2C1)C1(CC)CCOCC1 [Compound 33, (3aR,5s,6aS)-2-((4-ethyltetrahydro-2H-pyran-4-yl)methyl-d2)-N-(6-(2,3,5-trifluorophenyl)pyridazin-3-yl)octahydrocyclopenta[c]pyrrol-5-amine]
- Human M4 Emin: 3%
- IC50: 39.6 nM

SMILES: Fc1cc(F)c(F)c(-c2ccc(N[C@H]3C[C@@H]4CN(Cc5cc(Cl)ccn5)C[C@@H]4C3)nn2)c1 [Compound 19, (3aR,5s,6aS)-2-((4-chloropyridin-2-yl)methyl)-N-(6-(2,3,5-trifluorophenyl)pyridazin-3-yl)octahydrocyclopenta[c]pyrrol-5-amine]
- Human M4 Emin: 3%
- IC50: 133 nM

SMILES: [2H]C([2H])(c1c(F)cccc1F)N1C[C@H]2C[C@H](Nc3ccc(-c4cc(F)cc(F)c4F)nn3)C[C@H]2C1 [Compound 92, (3aR,5s,6aS)-2-((2,6-difluorophenyl)methyl-d2)-N-(6-(2,3,5-trifluorophenyl)pyridazin-3-yl)octahydrocyclopenta[c]pyrrol-5-amine]
- Human M4 Emin: 7%
- IC50: 750 nM
